These are literature values, as cited in US10849879B2, “Localized modulation of tissues and cells to enhance therapeutic effects including renal denervation” (Mercator MedSystems, Inc., priority 2011, dated 2020).

“And” between values parts separate entries of the source, which are not always exact repeats. Equal entries are not always repeated.

The subject of this data set is axon.

As to “(2-(Hexahydro-1(2H)-azocinyl)ethyl)guanidine sulfate (1:1) [guanethidine monosulfate]”, the “concentrations producing axon retraction in vitro” value was ≥ 0.2 mM and ≥ 60 μg/mL.
